The values below come from patent US20150266920A1, “MACROCYCLIC KETOAMIDE IMMUNOPROTEASOME INHIBITORS” (HOFF-MANN-LA ROCHE INC., priority 2012, published 2015).

One assay concerns β2c/2i. The assay is described as follows: Cell-Based Proteasome Activity/Selectivity Assay, Ramos cells, substrate (KQL)2Rh110. Particulars: β2c/2i substrate (KQL)2Rh110. The source says:
(§1) Cell-Based Proteasome Activity/Selectivity Assay
(§2) The Cell-Based Proteasome subunit activity/selectivity assay was a panel of 5 fluorogenic assays that independently measured the activity of β5c or β 5i (chymotrypsin-like activity), β2c/2i (trypsin-like), and β 1c or β 1i (caspase-like) protease activity associated with the proteasome complex in cultured cells. Specifically, the following substrates were used for respective subunit activities: β 1i: (PAL)2Rh110, β 1c: (LLE)2 Rh110, β2c/2i: (KQL)2Rh110, β 5c: (WLA)2Rh110, β 5i: (ANW)2Rh110. The following procedure was followed:
(§3) Cell preparation: Plated 25 μl of Ramos cells (2×10^6/ml in DPBS) into half area plate (PerkinElmer Cat 6005569) to final 5×10^4 cells/well. Added 0.5 μl of 100×4-fold serial diluted test compounds or DMSO to each well. Highest concentration of compound tested was 20 thus compound serial dilution started from […]. Incubated for 30 minutes at 37° C. Then equilibrated at room temperature for 15 minutes. Added 25 μl of 2× reaction mix consisting of 0.025% digitonin, 20 μM of each substrates and 0.5M sucrose in DPBS. Shaked for one minute @ 700 rpm. Incubated for […] at room temperature. Then read the plates with an Envision multilabel plate reader (PerkinElmer) with 500 nm excitation/519 nm emission.

In the next assay the target is T1, β 1i (Homo sapiens, UniProt P28065+P40306).
T1 construct: protease activity associated with the proteasome complex in cultured cells; endogenous in cells; host or cells: Ramos cells
The assay is described as follows: Cell-Based Proteasome Activity/Selectivity Assay, Ramos cells, substrate (PAL)2Rh110. To be noted: β1i substrate (PAL)2Rh110.
From the text: as §1, §2, §3

The next assay has as its target T2, β 5i (Homo sapiens, UniProt P20618+P28062).
T2 construct: protease activity associated with the proteasome complex in cultured cells; endogenous in cells; host or cells: Ramos cells
The assay is described as follows: Cell-Based Proteasome Activity/Selectivity Assay, Ramos cells, substrate (ANW)2Rh110. To be noted: β5i substrate (ANW)2Rh110, read-out: Ic50 ramos: ac-(anw)2-r110.
From the text: as §1, §2, §3

The target of another assay is T3, β 5c (Homo sapiens, UniProt P20618+P28074).
T3 construct: protease activity associated with the proteasome complex in cultured cells; endogenous in cells; host or cells: Ramos cells
The assay is described as follows: Cell-Based Proteasome Activity/Selectivity Assay, Ramos cells, substrate (WLA)2Rh110. Particulars: β5c substrate (WLA)2Rh110.
From the text: as §1, §2, §3

A further assay relates to IP 10 level. The assay is described as follows: PBMC IP-10 Assay. Format: cell-based. To be noted: Homo sapiens, PBMCs stimulated with CpG Type A, assay not named in the column head. Here is the method:
PBMCs were isolated from whole blood as follows: Blood was collected in a sterile environment in heparinized tubes. Blood was diluted with an equal volume PBS/2% FCS and 30 ml of this mixture was added to ACCUSPIN tubes containing 15 ml Histopaque-1077 already centrifuged at 800 g for 30 seconds and warmed up at room temperature. The tubes were then centrifuged at 800 g for 20 minutes at room temperature with no brake. The mononuclear band, just above the polyethylene frit, was removed by Pasteur pipet. These mononuclear cells were washed three times with sterile PBS, counted, and resuspended in RPMI 1640 supplemented with 10% heat inactivated fetal calf serum, 10 mM HEPES, 1 mM sodium pyruvate, penicillin (50 U/ml), streptomycin (50 μg/ml) and glutamine (2 mM) to approximately 1.5×10^6/ml. […] PBMC viability of cells remaining in the well was measured with ATPlite luminescence assay (Perkin-Elmer) per the manufacturer's instructions. Luminescence was measured on the Perkin-Elmer Envision, using the luminescence filter. IP 10 level was measured with CXCL10/IP10 AlphaLISA kit (Perkin-Elmer) per the manufacturer's instructions, except halving all volumes. Fluorescence was measured on the Envision Multilabel plate reader, using the AlphaScreen standard settings.

Another assay addresses T4, β 1c (Homo sapiens, UniProt P28072+Q99436).
T4 construct: protease activity associated with the proteasome complex in cultured cells; endogenous in cells; host or cells: Ramos cells
The assay is described as follows: Cell-Based Proteasome Activity/Selectivity Assay, Ramos cells, substrate (LLE)2 Rh110. To be noted: β1c substrate (LLE)2 Rh110.
From the text: as §1, §2, §3

Assay [1] concerns the target T5, LMP7 (Mus musculus, UniProt O09061+P28063). Particulars: DSS-induced colitis model in mice; cited from earlier work.
Assay [2] addresses T5, LMP7. To be noted: MRL/lpr lupus-prone mice; cited from earlier work.
In assay [3] the target is T5, LMP7. Particulars: mouse CAIA and CIA arthritis models; cited from earlier work.

Turning to `C[C@@H]1NC(=O)CCc2cccc(c2)-c2cccc(c2)CC[C@@H](C(=O)N[C@@H](Cc2ccccc2)C(=O)C(=O)NCc2ccccc2)NC1=O` [Example 1, (9S,12S)-12-Methyl-11,14-dioxo-10,13-diaza-tricyclo[15.3.1.1^2,6]docosa-1(20),2(22),3,5,17(21),18-hexaene-9-carboxylic acid ((S)-1-benzyl-2-benzylcarbamoyl-2-oxo-ethyl)-amide], the IC50 in the assay with β2c/2i is above 20000 nM; against β 1i, 1970 nM; on β 5i, 19 nM; at β 5c, 353 nM; at β 1c it was above 20000 nM. Besides, in the assay with IP 10 level, a half-maximal response (EC50) required 347 nM.
Consider `COc1ccc(C[C@H](NC(=O)[C@H](C)NC(=O)CN2CCOCC2)C(=O)N[C@@H](Cc2ccccc2)C(=O)[C@@]2(C)CO2)cc1` [PR-957], for which the “inflammation and tissue destruction” value at LMP7 [1] was “reduced inflammation and tissue destruction”. In addition, on LMP7 [2], the disease progression result is reported as “prevented disease progression”; the “plasma cells numbers and levels of anti-dsDNA IgG” value was “reduced plasma cells numbers and levels of anti-dsDNA IgG”. Besides, the disease score entry at LMP7 [3] is “significantly decrease disease score”.

Broadly, the IC50 is the point on the concentration scale where inhibition reaches its midpoint. The EC50 is the concentration giving half of the maximal effect.
